Experimental data taken from ChEMBL document CHEMBL5154718, “Synthesis, biological evaluation, and molecular modeling simulations of new heterocyclic hybrids as multi-targeted anti-Alzheimer's agents” (Eur J Med Chem, 2022).
pIC50: −log10 of the molar value. The source made the active and inactive calls. The calls are words filed in the database; no cut-off is given here.

Assays:
[1] = target: T1, Acetylcholinesterase (Homo sapiens, UniProt P22303)
Description: Inhibition of C-terminal 6His-tagged human recombinant AChE (32 to 614 residues) expressed in HEK293 cells using acetylthiocholine iodide as substrate preincubated for 5 mins followed by substrate addition by Ellman's method

[2] = target: T2, Amyloid-beta precursor protein (Homo sapiens, UniProt P05067); test: Inhibition of amyloid beta (1 to 42 ) (unknown origin) self aggregation measured after 3 hrs by ThT fluorescence assay
T2 sequence (P05067 whole entry): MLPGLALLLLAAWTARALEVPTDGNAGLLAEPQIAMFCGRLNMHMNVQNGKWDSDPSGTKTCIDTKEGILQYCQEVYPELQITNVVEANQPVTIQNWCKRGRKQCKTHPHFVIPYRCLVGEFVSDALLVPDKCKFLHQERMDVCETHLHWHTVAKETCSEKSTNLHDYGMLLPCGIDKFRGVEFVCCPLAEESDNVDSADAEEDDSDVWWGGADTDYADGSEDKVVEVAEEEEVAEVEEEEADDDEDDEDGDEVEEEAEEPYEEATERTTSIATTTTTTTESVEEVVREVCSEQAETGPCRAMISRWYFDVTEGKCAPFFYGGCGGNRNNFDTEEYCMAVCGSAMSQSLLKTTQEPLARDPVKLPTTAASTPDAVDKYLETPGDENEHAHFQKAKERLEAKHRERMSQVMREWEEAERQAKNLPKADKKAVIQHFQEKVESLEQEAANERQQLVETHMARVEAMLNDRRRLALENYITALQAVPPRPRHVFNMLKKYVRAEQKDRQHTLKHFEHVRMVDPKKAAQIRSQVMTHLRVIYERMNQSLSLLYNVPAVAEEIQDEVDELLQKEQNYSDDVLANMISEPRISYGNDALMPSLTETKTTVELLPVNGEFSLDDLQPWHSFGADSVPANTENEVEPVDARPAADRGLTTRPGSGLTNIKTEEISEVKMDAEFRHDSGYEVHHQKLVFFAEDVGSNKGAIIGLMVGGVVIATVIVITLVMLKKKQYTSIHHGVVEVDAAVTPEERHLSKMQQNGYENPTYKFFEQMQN

[3] = target: T2, Amyloid-beta precursor protein; test: Inhibition of amyloid beta (1 to 42 ) (unknown origin) self aggregation at 25 uM measured after 3 hrs by ThT fluorescence assay relative to control
[4] = target: T3, Cholinesterase (Homo sapiens, UniProt P06276)
T3 sequence (P06276 whole entry): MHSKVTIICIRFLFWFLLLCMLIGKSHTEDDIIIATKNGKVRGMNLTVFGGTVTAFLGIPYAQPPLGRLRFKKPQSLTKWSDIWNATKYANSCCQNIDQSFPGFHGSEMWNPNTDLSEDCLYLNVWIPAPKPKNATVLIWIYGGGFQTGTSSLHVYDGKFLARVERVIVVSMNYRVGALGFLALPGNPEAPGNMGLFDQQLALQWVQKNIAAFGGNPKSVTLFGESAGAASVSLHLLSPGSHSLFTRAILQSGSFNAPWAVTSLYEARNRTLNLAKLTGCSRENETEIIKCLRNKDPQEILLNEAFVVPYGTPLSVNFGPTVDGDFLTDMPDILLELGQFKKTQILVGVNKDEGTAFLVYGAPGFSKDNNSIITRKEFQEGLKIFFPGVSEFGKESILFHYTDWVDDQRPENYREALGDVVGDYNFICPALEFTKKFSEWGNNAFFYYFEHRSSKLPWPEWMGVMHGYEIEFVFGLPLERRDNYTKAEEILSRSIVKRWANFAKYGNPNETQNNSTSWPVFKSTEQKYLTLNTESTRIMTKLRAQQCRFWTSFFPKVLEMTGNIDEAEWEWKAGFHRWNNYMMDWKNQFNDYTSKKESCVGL
Description: Inhibition of C-terminal 6His-tagged human recombinant BuChE (29 to 602 residues) using butyrylthiocholine iodide as substrate preincubated for 5 mins followed by substrate addition by Ellman's method

[5] = system: AChE; format: toxicity, cell-based; details: human, probe acetylthiocholine iodide; read-out: Ratio IC50
[6] = Metal chelating activity assessed as Cu2+-compound complex formation by measuring hyperchromic shift at 30 to 60 uM by UV-visible spectrophotometry; details: dose 30-60 µM
[7] = animal or person; format: functional; details: Rattus norvegicus, Sprague-Dawley, Brain, route ip, time 1 hrs
[8] = Metal chelating activity assessed as Zn2+-compound complex formation by measuring bathochromic shift at 30 to 60 uM by UV-visible spectrophotometry; details: dose 30-60 µM
[9] = Metal chelating activity assessed as Zn2+-compound complex formation by measuring hyperchromic shift at 30 to 60 uM by UV-visible spectrophotometry; details: dose 30-60 µM
[10] = Metal chelating activity assessed as Cu2+-compound complex formation by measuring bathochromic shift at 30 to 60 uM by UV-visible spectrophotometry; details: dose 30-60 µM
[11] = in vivo; details: Sprague-Dawley, rat, ip
Description: Toxicity in Sprague-Dawley rat assessed as median lethal dose administered intraperitoneally as single dose

[12] = Metal chelating activity assessed as Fe2+-compound complex formation by measuring hyperchromic shift at 30 to 60 uM by UV-visible spectrophotometry; details: dose 30-60 µM
[13] = Metal chelating activity assessed as Fe2+-compound complex formation by measuring bathochromic shift at 30 to 60 uM by UV-visible spectrophotometry; details: dose 30-60 µM
[14] = in vitro; details: human, HepG2 cells
Description: Cytotoxicity against human HepG2 cells assessed as cell growth inhibition incubated for 72 hrs by MTT assay

[15] = target: T1, Acetylcholinesterase; test: Inhibition of human recombinant AChE using acetylthiocholine as substrate preincubated for 5 mins followed by substrate addition by Ellman's method
[16] = target: T3, Cholinesterase; test: Inhibition of human plasma BuChE using butyrylthiocholine as substrate preincubated for 5 mins followed by substrate addition by Ellman's method; format: cell-free
[17] = Toxicity in Sprague-Dawley rat assessed as mortality up to 120 mg/kg, ip administered as single dose measured after 24 hrs; format: organism-based; details: in vivo
[18] = Metal chelating activity assessed as Zn2+-compound complex formation by measuring hypochromic shift at 30 to 60 uM by UV-visible spectrophotometry; details: dose 30-60 µM

T1 sequence (P22303 whole entry): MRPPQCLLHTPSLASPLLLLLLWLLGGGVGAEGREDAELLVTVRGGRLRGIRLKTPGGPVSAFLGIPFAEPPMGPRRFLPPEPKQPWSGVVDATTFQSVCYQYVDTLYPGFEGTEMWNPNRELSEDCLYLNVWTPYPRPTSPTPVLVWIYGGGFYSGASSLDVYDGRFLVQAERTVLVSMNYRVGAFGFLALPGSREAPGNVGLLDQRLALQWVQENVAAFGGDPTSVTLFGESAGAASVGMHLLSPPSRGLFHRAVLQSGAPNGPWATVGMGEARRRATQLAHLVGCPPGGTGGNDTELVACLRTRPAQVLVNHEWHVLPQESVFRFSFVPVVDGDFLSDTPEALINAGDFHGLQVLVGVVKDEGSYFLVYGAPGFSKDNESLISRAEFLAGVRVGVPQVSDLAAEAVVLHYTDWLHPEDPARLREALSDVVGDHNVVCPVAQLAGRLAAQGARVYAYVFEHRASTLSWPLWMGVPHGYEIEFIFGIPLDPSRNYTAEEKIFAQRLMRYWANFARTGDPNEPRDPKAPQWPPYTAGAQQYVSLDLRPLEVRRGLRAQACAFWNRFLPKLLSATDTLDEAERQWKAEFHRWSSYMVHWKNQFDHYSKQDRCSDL

| SMILES | pIC50 [1] | pIC50 [2] | inhibition [3] [%] | pIC50 [4] | also measured |
| --- | --- | --- | --- | --- | --- |
| Cc1ccc2nc3c(c(NCCN4CCCCC4)c2c1)CCCC3 | 5.59 |  |  |  |  |
| Cc1ccc2nc3c(c(NCCN4CCN(Cc5ccccc5)CC4)c2c1)CCCC3 | 5.20 |  |  |  |  |
| CN1CCN(c2c3c(nc4ccc([N+](=O)[O-])cc24)CCCC3)CC1 | 6.61 | 5.35 | 66.4 | 6.78 |  |
| Cc1ccc2nc3c(c(NCCN4CCN(C)CC4)c2c1)CCCC3 | 6.01 |  |  |  |  |
| CN1CCN(CCC(=O)Nc2n[nH]c3ncccc23)CC1 | 6.07 |  |  |  |  |
| Cc1ccc2nc3c(c(NCCN4CCOCC4)c2c1)CCCC3 | 6.88 | 4.82 | 54.6 | 5.50 | selectivity ratio at 72 h [5]: 72.8; Activity [6]: Active; inhibition in vivo at 10 mg/kg [7]: 35%; Activity [8]: Active; Activity [9]: Active; Activity [10]: Active; LD50 [11]: 96.5 mg/kg; Activity [12]: Active; Activity [13]: Active; IC50 at 72 h [14]: 9530 nM |
| Cc1ccc2nc3c(c(NCCO)c2c1)CCCC3 | 6.74 | 5.53 | 69.8 | 6.08 |  |
| O=[N+]([O-])c1ccc2nc3c(c(Nc4[nH]nc5ncccc45)c2c1)CCCC3 | 6.52 | 6.11 | 81.5 | 6.37 | selectivity ratio at 72 h [5]: 105; Activity [6]: Active; Activity [9]: Active; Activity [10]: Active; Activity [12]: Active; IC50 at 72 h [14]: 31300 nM |
| COc1cc2c(cc1OC)C(=O)C(CC1CCN(Cc3ccccc3)CC1)C2 (centres undefined) [DONEPEZIL] |  |  |  |  | inhibition in vivo at 10 mg/kg [7]: 46.5%; LD50 [11]: 32.5 mg/kg |
| Cc1ccc2nc3c(c(N4CCN(C)CC4)c2c1)CCCC3 | 6.36 |  |  |  |  |
| Cc1ccc2nc3c(c(NCCCl)c2c1)CCCC3 | 6.12 |  |  |  |  |
| O=C(CCN1CCN(c2ccccc2)CC1)Nc1n[nH]c2ncccc12 | 6.64 | 5.70 | 65.5 | 6.11 |  |
| O=[N+]([O-])c1ccc2nc3c(c(N4CCOCC4)c2c1)CCCC3 | 5.91 |  |  |  |  |
| O=C(CCN1CCOCC1)Nc1n[nH]c2ncccc12 | 6.56 | 5.67 | 71.8 | 6.33 |  |
| c1ccc2c(NCCN3CCOCC3)c3c(nc2c1)CCCC3 |  |  |  |  | pIC50 [15]: 7.03; pIC50 [16]: 7.80 |
| CC(=O)Nc1ccc2nc3c(c(N4CCOCC4)c2c1)CCCC3 | 5.95 |  |  |  |  |
| O=C(Cn1nc2ncccc2c1NC(=O)Cn1nc2ncccc2c1NC(=O)CN1CCN(Cc2ccccc2)CC1)Nc1[nH]nc2ncccc12 | 4.74 |  |  |  |  |
| CC(=O)Nc1ccc2nc3c(c(N4CCCCC4)c2c1)CCCC3 | 6.52 | 5.89 | 77.3 | 6.34 |  |
| Cc1ccc2nc3c(c(N4CCCCC4)c2c1)CCCC3 | 6.93 | 5.17 | 61.9 | 5.70 | selectivity ratio at 72 h [5]: 321; Activity [6]: Active; inhibition in vivo at 10 mg/kg [7]: 35%; Activity [8]: Active; Activity [9]: Active; Activity [10]: Active; LD50 [11]: 42 mg/kg; Activity [12]: Active; Activity [13]: Active; IC50 at 72 h [14]: 37900 nM |
| COc1cc2nc3c(c(N4CCOCC4)c2cc1OC)CCCC3 | 7.21 | 5.91 | 78.6 | 6.12 | selectivity ratio at 72 h [5]: 102; Activity [6]: Active; inhibition in vivo at 10 mg/kg [7]: 35%; Activity [17]: Non-Toxic; Activity [9]: Active; Activity [10]: Active; Activity [18]: Active; Activity [12]: Active; Activity [13]: Active; IC50 at 72 h [14]: 6300 nM |
| O=C(CN1CCN(c2ccccc2)CC1)Nc1n[nH]c2ncccc12 | 5.71 |  |  |  |  |
| Cc1ccc2nc3c(c(N4CCN(c5c6c(nc7ccc(C)cc57)CCCC6)CC4)c2c1)CCCC3 | 6.28 |  |  |  |  |
| O=[N+]([O-])c1ccc2nc3c(c(N4CCCCC4)c2c1)CCCC3 | 5.72 |  |  |  |  |
| O=C(CCN1CCCCC1)Nc1n[nH]c2ncccc12 | 6.18 |  |  |  |  |
| O=C(CN1CCN(Cc2ccccc2)CC1)Nc1n[nH]c2ncccc12 | 6.52 | 5.25 | 65 | 5.55 |  |
| O=C(CCN1CCN(Cc2ccccc2)CC1)Nc1n[nH]c2ncccc12 | 7.47 | 4.88 | 55.5 | 5.45 | selectivity ratio at 72 h [5]: 735; inhibition in vivo at 10 mg/kg [7]: 35%; Activity [17]: Non-Toxic; Activity [9]: Active; Activity [10]: Active; Activity [12]: Active; IC50 at 72 h [14]: 25000 nM |
| Cc1ccc2nc3c(c(Nc4[nH]nc5ncccc45)c2c1)CCCC3 | 6.09 |  |  |  |  |
| Nc1nn(-c2c3c(nc4ccc([N+](=O)[O-])cc24)CCCC3)c2ncccc12 | 7.25 | 4.50 | 48 | 5.28 | selectivity ratio at 72 h [5]: 800; Activity [18]: Active; Activity [12]: Active; IC50 at 72 h [14]: 44800 nM |
| Cc1ccc2nc3c(c(N4CCOCC4)c2c1)CCCC3 | 5.75 |  |  |  |  |
